Literature values as cited in patent US20030018166A1 (priority 2000, published 2003).
Where two headings read alike, the source gives them in different places.

Target: T1, M. avium ICL (UniProt P9WKK7)
T1 construct: The proteins were purified by the 6His-tag attached to the N terminus; fused on or other part: N-terminal 6His tag
T1 sequence (P9WKK7 1-428): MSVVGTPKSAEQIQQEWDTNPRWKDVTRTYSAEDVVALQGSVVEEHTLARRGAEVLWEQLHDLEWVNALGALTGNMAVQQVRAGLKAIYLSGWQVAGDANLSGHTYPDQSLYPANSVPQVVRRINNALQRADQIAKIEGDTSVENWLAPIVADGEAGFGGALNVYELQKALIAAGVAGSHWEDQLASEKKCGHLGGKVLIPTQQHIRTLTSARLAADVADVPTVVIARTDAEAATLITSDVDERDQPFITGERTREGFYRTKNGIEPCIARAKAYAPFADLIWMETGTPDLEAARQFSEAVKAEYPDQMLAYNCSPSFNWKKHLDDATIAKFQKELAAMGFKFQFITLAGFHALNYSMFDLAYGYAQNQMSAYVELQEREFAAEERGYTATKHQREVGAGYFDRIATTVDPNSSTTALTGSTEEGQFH
Conditions: Schloss and Cleland, 1982, cited from earlier work

Row | Compound | Ki (read-out: Ki) [µM] | Ki [µM]
1 | O=C(O)CC[N+](=O)[O-] [3-nitropropionate] | 3 | 
2 | O=C(O)C(=O)CBr [bromopyruvate, 3-bromopyruvate] |  | 120
